The text below walks through data of the supplement of paper PMC12076712.

In general, pIC50 refers to the IC50 on a negative log10 scale, so that one unit is a factor of ten.

Some targets named below: UniProt P19525; UniProt Q15208; MAST3 (UniProt O60307); UniProt Q9Y2H1; TAOK3 (UniProt Q9H2K8); UniProt P19784; SLK (UniProt Q9H2G2); CASP6 (UniProt P55212); UniProt Q8NEB9; UniProt Q9P289; PXMP2 (UniProt Q9NR77); LYPLA2 (UniProt O95372); CLK3 (UniProt P49761); CLK1 (UniProt P49759); NT5C3B (UniProt Q969T7); SCCPDH (UniProt Q8NBX0); UniProt Q92918; IRAK1 (UniProt P51617); CES3 (UniProt Q6UWW8); BLK (UniProt P51451); PNPLA6 (UniProt Q8IY17); SRC (UniProt P12931); CAMKK2 (UniProt Q96RR4); UniProt P28482; UniProt P45984; UniProt P45983.

Experiment in all cases: pIC50, competition of probe 3 labelling in live cells
Common to all, as to conditions: cell material: Jurkat cells

The next assay has as its target T1, UniProt Q13043.
T1 sequence (whole entry): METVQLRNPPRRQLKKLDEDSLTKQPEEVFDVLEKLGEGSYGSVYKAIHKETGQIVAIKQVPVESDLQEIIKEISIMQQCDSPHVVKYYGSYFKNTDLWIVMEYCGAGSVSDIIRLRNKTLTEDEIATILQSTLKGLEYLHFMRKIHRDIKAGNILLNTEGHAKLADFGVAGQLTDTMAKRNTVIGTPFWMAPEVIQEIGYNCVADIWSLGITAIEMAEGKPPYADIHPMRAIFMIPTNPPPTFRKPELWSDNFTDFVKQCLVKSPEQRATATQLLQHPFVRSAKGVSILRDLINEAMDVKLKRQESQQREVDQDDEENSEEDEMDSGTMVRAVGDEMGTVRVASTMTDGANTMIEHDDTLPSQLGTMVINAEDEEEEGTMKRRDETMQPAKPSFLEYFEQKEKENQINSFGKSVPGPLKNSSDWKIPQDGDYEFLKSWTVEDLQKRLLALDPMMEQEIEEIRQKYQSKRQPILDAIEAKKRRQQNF

A further assay addresses T2, MAP4K2 (UniProt Q12851).
T2 sequence (whole entry): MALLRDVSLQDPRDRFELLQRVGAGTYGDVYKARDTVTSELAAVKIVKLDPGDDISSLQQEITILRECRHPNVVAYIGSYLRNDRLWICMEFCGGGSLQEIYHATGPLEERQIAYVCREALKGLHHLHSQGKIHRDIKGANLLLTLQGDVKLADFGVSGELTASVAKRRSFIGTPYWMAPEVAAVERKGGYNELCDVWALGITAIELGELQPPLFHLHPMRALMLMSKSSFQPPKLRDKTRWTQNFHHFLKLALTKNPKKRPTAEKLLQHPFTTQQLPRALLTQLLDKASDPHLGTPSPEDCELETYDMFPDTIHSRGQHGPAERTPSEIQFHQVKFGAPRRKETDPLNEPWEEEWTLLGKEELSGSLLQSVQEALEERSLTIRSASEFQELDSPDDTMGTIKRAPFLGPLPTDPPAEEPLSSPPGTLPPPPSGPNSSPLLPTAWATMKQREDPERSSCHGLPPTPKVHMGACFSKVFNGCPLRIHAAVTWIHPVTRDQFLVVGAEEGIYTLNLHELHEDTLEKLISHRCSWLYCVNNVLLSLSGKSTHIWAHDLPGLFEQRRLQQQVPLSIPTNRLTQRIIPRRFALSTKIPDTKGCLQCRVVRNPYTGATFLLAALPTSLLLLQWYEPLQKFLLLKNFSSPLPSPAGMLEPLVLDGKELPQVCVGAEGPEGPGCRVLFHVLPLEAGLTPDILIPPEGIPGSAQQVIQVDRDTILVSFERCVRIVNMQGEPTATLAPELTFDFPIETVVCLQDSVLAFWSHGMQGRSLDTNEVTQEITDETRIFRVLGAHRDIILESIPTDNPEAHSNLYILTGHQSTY

Consider `CCc1cnn2c(NCc3ccc[n+]([O-])c3)cc(N3CCCC[C@H]3CCO)nc12` [dinaciclib], for which the pIC50 on UniProt P19525, at UniProt Q15208, on MAST3, at UniProt Q9Y2H1, on TAOK3 and on UniProt P19784 was under 4.52 each time. Moreover, the pIC50 on SLK, on CASP6, at UniProt Q8NEB9, on UniProt Q9P289, at PXMP2 and at UniProt Q13043 was under 4.52 in each case. Moreover, the pIC50 at LYPLA2, on CLK3, on CLK1, on NT5C3B, on SCCPDH and on UniProt Q92918 was under 4.52 each time. Moreover, the pIC50 at IRAK1, at CES3, on BLK, on PNPLA6, on SRC and at CAMKK2 was under 4.52 in each case. Also, the pIC50 on UniProt P28482 was under 4.52.

Regarding `CC#CC(=O)Nc1ccc2ncnc(Nc3cccc(Br)c3)c2c1` [EKI-785], the pIC50 at UniProt P45984 was 4.6; at MAP4K2, under 4.52; at UniProt P45983 it was under 4.52.
